# Test results published in ChEMBL document CHEMBL1909046, “DrugMatrix in vitro pharmacology data”.
# Target: Sodium-dependent dopamine transporter (Homo sapiens, UniProt Q01959)
# Assay: DRUGMATRIX: Dopamine Transporter radioligand binding (ligand: [125I] RTI-55)
# Format: cell membranes, CHO-K1, Membrane
# Conditions: cho-k1; Not Active = under 50% inhibition at 10 µM
# Sodium-dependent dopamine transporter, sequence (Q01959 whole entry): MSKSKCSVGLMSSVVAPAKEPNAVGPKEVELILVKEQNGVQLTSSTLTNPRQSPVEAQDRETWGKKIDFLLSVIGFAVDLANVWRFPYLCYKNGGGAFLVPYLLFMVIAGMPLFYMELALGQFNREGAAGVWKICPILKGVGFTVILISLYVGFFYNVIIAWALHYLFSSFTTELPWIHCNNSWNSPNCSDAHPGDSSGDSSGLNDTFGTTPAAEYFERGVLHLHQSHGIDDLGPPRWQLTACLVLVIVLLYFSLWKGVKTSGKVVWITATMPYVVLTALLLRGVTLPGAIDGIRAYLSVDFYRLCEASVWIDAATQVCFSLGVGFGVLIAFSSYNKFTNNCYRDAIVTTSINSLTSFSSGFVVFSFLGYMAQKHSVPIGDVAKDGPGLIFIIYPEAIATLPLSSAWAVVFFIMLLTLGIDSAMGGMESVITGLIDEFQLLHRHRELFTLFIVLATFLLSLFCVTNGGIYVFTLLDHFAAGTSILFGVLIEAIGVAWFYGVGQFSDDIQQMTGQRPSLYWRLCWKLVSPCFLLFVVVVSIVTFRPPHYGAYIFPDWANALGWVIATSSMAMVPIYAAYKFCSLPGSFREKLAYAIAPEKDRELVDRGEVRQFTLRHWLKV
row,SMILES,IC50
1,COc1cc(N)nc2[nH]c(-c3ccc(F)cc3)c(-c3ccncc3)c12,Not Active
2,CNS(=O)(=O)Cc1ccc2[nH]cc(CCN(C)C)c2c1,Not Active
3,CCCc1nn(C)c2c(=O)[nH]c(-c3cc(S(=O)(=O)N4CCN(C)CC4)ccc3OCC)nc12,Not Active
4,COc1ccc(/C=C/C(=O)Nc2ccccc2C(=O)O)cc1OC,Not Active
5,CCOC(N)=O,Not Active
6,CC(=O)Nc1nnc(S(N)(=O)=O)s1 [ACETAZOLAMIDE],Not Active
7,O=c1[nH]c2ccccc2n1CCCN1CCC(n2c(=O)[nH]c3cc(Cl)ccc32)CC1 [DOMPERIDONE],Not Active
8,CC1=C(CC(=O)O)c2cc(F)ccc2/C1=C\c1ccc(S(C)(=O)=O)cc1 [EXISULIND],Not Active

# Target: Melanocortin receptor 4 (Homo sapiens, UniProt P32245); further: in other assays of this panel Not Active means under 50% inhibition at 10 µM
# Assay: not given
# Format: cell membranes, Membrane
# Conditions: hek293
# Melanocortin receptor 4, sequence (P32245 whole entry): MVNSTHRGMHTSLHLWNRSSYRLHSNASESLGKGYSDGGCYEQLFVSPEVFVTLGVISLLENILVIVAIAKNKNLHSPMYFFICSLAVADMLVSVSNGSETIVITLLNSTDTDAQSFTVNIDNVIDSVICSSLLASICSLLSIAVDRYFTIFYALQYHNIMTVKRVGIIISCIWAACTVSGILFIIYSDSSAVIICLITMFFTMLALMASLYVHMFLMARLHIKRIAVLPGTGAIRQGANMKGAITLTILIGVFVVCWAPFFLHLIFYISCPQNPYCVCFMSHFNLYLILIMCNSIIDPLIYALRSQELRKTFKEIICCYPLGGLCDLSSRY
row,SMILES,IC50
1,COc1cc(N)nc2[nH]c(-c3ccc(F)cc3)c(-c3ccncc3)c12,Not Active
2,CNS(=O)(=O)Cc1ccc2[nH]cc(CCN(C)C)c2c1,Not Active
3,CCCc1nn(C)c2c(=O)[nH]c(-c3cc(S(=O)(=O)N4CCN(C)CC4)ccc3OCC)nc12,Not Active
4,COc1ccc(/C=C/C(=O)Nc2ccccc2C(=O)O)cc1OC,Not Active
5,CCOC(N)=O,Not Active
6,CC(=O)Nc1nnc(S(N)(=O)=O)s1 [ACETAZOLAMIDE],Not Active
7,O=c1[nH]c2ccccc2n1CCCN1CCC(n2c(=O)[nH]c3cc(Cl)ccc32)CC1 [DOMPERIDONE],Not Active
8,CC1=C(CC(=O)O)c2cc(F)ccc2/C1=C\c1ccc(S(C)(=O)=O)cc1 [EXISULIND],Not Active

# Target: T1, 3-hydroxy-3-methylglutaryl-coenzyme A reductase (Homo sapiens, UniProt P04035);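 further: enzyme inhibition assay of HMG-CoA reductase using radiolabeled [14C]HMG-CoA as substrate; in other assays of this panel Not Active means under 50% inhibition at 10 µM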
# T1 sequence (P04035 whole entry): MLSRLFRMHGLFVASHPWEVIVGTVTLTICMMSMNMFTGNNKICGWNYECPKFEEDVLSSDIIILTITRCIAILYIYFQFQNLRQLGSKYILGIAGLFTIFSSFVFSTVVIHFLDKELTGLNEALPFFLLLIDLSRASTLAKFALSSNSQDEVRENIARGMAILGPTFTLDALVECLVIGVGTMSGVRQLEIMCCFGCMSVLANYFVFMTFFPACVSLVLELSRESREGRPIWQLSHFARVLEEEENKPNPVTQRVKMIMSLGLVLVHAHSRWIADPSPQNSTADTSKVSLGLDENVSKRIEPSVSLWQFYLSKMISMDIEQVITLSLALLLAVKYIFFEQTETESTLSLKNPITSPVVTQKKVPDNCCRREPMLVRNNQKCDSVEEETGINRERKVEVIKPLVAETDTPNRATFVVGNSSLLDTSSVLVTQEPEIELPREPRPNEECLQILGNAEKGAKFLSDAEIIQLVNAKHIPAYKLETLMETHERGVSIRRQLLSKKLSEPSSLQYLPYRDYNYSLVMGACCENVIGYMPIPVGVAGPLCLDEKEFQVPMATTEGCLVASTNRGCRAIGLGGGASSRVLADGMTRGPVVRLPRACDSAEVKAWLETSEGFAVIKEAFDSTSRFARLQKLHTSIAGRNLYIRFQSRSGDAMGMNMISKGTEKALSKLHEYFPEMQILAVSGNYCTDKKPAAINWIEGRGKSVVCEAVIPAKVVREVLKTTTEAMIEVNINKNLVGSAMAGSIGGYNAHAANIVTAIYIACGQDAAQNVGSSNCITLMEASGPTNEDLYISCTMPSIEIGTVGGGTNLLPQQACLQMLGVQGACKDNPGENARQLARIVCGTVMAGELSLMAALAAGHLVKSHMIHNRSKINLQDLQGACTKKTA
# Assay: not given
# Parameters: species or system Escherichia coli
# Conditions: not given
row,SMILES,IC50
1,COc1cc(N)nc2[nH]c(-c3ccc(F)cc3)c(-c3ccncc3)c12,Not Active
2,CNS(=O)(=O)Cc1ccc2[nH]cc(CCN(C)C)c2c1,Not Active
3,CCCc1nn(C)c2c(=O)[nH]c(-c3cc(S(=O)(=O)N4CCN(C)CC4)ccc3OCC)nc12,Not Active
4,COc1ccc(/C=C/C(=O)Nc2ccccc2C(=O)O)cc1OC,Not Active
5,CCOC(N)=O,Not Active
6,CC(=O)Nc1nnc(S(N)(=O)=O)s1 [ACETAZOLAMIDE],Not Active
7,O=c1[nH]c2ccccc2n1CCCN1CCC(n2c(=O)[nH]c3cc(Cl)ccc32)CC1 [DOMPERIDONE],Not Active
8,CC1=C(CC(=O)O)c2cc(F)ccc2/C1=C\c1ccc(S(C)(=O)=O)cc1 [EXISULIND],Not Active

# System: not listed separately
# Assay: DRUGMATRIX: Sigma2 radioligand binding (ligand: [3H] Ifenprodil)
# Format: cell membranes, Rattus norvegicus, Wistar, Brain, Membrane
# Conditions: Not Active = under 50% inhibition at 10 µM
SMILES,IC50,Ki
COc1cc(N)nc2[nH]c(-c3ccc(F)cc3)c(-c3ccncc3)c12,Not Active,Not Active
CNS(=O)(=O)Cc1ccc2[nH]cc(CCN(C)C)c2c1,Not Active,Not Active
CCCc1nn(C)c2c(=O)[nH]c(-c3cc(S(=O)(=O)N4CCN(C)CC4)ccc3OCC)nc12,Not Active,Not Active
COc1ccc(/C=C/C(=O)Nc2ccccc2C(=O)O)cc1OC,Not Active,Not Active
CCOC(N)=O,Not Active,Not Active
CC1=C(CC(=O)O)c2cc(F)ccc2/C1=C\c1ccc(S(C)(=O)=O)cc1 [EXISULIND],Not Active,Not Active

# Target: T2, Endothelin-1 receptor (Homo sapiens, UniProt P25101); further: in other assays of this panel Not Active means under 50% inhibition at 10 µM
# T2 sequence (P25101 whole entry): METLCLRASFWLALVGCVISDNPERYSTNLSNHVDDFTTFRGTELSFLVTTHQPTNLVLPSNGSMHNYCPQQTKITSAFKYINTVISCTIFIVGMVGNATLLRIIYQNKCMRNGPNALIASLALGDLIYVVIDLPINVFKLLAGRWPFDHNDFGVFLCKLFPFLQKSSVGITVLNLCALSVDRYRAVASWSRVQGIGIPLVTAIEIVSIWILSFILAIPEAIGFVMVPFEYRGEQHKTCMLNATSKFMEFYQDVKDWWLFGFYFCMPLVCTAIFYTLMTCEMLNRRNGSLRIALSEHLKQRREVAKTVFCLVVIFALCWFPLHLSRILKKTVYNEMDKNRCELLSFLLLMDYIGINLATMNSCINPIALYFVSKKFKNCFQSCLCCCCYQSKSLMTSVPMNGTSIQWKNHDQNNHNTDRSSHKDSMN
# Assay: not given
# Format: cell membranes, CHO-K1, Membrane
# Conditions: cho-k1
row,SMILES,IC50
1,COc1cc(N)nc2[nH]c(-c3ccc(F)cc3)c(-c3ccncc3)c12,Not Active
2,CNS(=O)(=O)Cc1ccc2[nH]cc(CCN(C)C)c2c1,Not Active
3,CCCc1nn(C)c2c(=O)[nH]c(-c3cc(S(=O)(=O)N4CCN(C)CC4)ccc3OCC)nc12,Not Active
4,COc1ccc(/C=C/C(=O)Nc2ccccc2C(=O)O)cc1OC,Not Active
5,CCOC(N)=O,Not Active
6,CC(=O)Nc1nnc(S(N)(=O)=O)s1 [ACETAZOLAMIDE],Not Active
7,O=c1[nH]c2ccccc2n1CCCN1CCC(n2c(=O)[nH]c3cc(Cl)ccc32)CC1 [DOMPERIDONE],Not Active

# Same assay, conditions: read-out: IC50
row,SMILES,IC50
1,CC1=C(CC(=O)O)c2cc(F)ccc2/C1=C\c1ccc(S(C)(=O)=O)cc1 [EXISULIND],9.85 µM

# Same assay, conditions: read-out: Ki
row,SMILES,Ki
1,CC1=C(CC(=O)O)c2cc(F)ccc2/C1=C\c1ccc(S(C)(=O)=O)cc1 [EXISULIND],6.06 µM

# Target: T3, C-C chemokine receptor type 4 (Homo sapiens, UniProt P51679); further: in other assays of this panel Not Active means under 50% inhibition at 10 µM
# T3 sequence (P51679 whole entry): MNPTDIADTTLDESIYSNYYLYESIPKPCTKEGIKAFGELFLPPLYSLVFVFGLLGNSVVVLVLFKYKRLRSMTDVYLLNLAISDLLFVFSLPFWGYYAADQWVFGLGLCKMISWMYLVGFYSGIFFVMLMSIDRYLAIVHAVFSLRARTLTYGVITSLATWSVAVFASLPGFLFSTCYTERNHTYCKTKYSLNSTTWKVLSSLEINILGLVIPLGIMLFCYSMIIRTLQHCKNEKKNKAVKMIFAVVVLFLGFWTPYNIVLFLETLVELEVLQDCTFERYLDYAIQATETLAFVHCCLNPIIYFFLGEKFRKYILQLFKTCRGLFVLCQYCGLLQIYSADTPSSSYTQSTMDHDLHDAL
# Assay: not given
# Format: cell membranes, Membrane
# Conditions: chem-1
row,SMILES,IC50
1,COc1cc(N)nc2[nH]c(-c3ccc(F)cc3)c(-c3ccncc3)c12,Not Active
2,CNS(=O)(=O)Cc1ccc2[nH]cc(CCN(C)C)c2c1,Not Active
3,CCCc1nn(C)c2c(=O)[nH]c(-c3cc(S(=O)(=O)N4CCN(C)CC4)ccc3OCC)nc12,Not Active
4,COc1ccc(/C=C/C(=O)Nc2ccccc2C(=O)O)cc1OC,Not Active
5,CCOC(N)=O,Not Active
6,CC(=O)Nc1nnc(S(N)(=O)=O)s1 [ACETAZOLAMIDE],Not Active
7,O=c1[nH]c2ccccc2n1CCCN1CCC(n2c(=O)[nH]c3cc(Cl)ccc32)CC1 [DOMPERIDONE],Not Active
8,CC1=C(CC(=O)O)c2cc(F)ccc2/C1=C\c1ccc(S(C)(=O)=O)cc1 [EXISULIND],Not Active

# Target: T4, Caspase-1 (Homo sapiens, UniProt P29466)
# T4 sequence (P29466 whole entry): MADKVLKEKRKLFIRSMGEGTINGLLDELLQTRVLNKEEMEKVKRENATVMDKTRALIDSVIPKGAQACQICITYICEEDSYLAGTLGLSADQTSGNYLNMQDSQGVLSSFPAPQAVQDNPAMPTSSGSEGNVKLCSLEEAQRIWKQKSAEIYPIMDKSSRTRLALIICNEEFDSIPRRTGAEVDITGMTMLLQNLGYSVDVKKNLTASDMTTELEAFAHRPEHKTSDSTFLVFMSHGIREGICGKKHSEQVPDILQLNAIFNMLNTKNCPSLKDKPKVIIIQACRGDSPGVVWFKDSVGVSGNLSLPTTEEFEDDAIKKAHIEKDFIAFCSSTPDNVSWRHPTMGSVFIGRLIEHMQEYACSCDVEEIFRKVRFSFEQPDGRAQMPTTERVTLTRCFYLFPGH
# Assay: not given
# Parameters: species or system Escherichia coli
# Conditions: not given
row,SMILES,IC50
1,COc1cc(N)nc2[nH]c(-c3ccc(F)cc3)c(-c3ccncc3)c12,Not Active
2,CNS(=O)(=O)Cc1ccc2[nH]cc(CCN(C)C)c2c1,Not Active
3,CCCc1nn(C)c2c(=O)[nH]c(-c3cc(S(=O)(=O)N4CCN(C)CC4)ccc3OCC)nc12,Not Active
4,COc1ccc(/C=C/C(=O)Nc2ccccc2C(=O)O)cc1OC,Not Active
5,CCOC(N)=O,Not Active
6,CC(=O)Nc1nnc(S(N)(=O)=O)s1 [ACETAZOLAMIDE],Not Active
7,O=c1[nH]c2ccccc2n1CCCN1CCC(n2c(=O)[nH]c3cc(Cl)ccc32)CC1 [DOMPERIDONE],Not Active
8,CC1=C(CC(=O)O)c2cc(F)ccc2/C1=C\c1ccc(S(C)(=O)=O)cc1 [EXISULIND],Not Active

# Target: Receptor tyrosine-protein kinase erbB-2 (Homo sapiens, UniProt P04626)
# Assay: biochemical
# Format: cell-based, Insect cells
# Conditions: insect cells
# Receptor tyrosine-protein kinase erbB-2, sequence (P04626 whole entry): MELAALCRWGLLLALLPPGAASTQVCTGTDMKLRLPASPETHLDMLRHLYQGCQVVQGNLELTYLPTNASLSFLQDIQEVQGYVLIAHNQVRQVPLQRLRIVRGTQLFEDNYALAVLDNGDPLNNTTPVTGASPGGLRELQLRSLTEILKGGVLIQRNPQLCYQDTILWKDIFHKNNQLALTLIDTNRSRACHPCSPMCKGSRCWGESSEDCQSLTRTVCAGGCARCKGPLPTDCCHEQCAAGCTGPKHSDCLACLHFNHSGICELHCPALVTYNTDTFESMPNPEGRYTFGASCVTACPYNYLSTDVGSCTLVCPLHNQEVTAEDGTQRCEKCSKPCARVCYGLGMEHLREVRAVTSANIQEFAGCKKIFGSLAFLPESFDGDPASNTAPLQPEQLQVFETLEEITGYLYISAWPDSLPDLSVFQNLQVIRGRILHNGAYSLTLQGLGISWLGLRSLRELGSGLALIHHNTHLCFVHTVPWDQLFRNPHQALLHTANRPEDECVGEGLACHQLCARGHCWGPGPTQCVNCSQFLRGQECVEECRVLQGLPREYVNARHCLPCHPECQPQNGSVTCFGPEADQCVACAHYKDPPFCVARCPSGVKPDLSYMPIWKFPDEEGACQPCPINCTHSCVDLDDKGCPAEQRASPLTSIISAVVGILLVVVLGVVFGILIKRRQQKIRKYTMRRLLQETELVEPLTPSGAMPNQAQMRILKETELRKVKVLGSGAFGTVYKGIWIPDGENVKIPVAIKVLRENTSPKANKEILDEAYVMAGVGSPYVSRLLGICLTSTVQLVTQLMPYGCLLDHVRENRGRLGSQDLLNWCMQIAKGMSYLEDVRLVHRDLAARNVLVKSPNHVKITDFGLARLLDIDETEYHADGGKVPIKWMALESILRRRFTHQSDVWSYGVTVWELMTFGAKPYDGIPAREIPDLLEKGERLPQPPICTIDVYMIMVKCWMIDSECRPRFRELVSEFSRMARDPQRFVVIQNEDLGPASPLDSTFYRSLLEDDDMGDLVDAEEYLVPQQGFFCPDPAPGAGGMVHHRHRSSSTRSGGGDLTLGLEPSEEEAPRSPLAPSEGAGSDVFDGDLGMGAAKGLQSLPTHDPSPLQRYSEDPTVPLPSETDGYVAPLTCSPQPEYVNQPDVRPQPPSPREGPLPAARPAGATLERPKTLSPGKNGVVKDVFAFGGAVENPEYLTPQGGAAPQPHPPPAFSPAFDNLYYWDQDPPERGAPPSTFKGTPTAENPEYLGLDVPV
row,SMILES,IC50
1,COc1cc(N)nc2[nH]c(-c3ccc(F)cc3)c(-c3ccncc3)c12,Not Active
2,CNS(=O)(=O)Cc1ccc2[nH]cc(CCN(C)C)c2c1,Not Active
3,CCCc1nn(C)c2c(=O)[nH]c(-c3cc(S(=O)(=O)N4CCN(C)CC4)ccc3OCC)nc12,Not Active
4,COc1ccc(/C=C/C(=O)Nc2ccccc2C(=O)O)cc1OC,Not Active
5,CCOC(N)=O,Not Active
6,CC(=O)Nc1nnc(S(N)(=O)=O)s1 [ACETAZOLAMIDE],Not Active
7,O=c1[nH]c2ccccc2n1CCCN1CCC(n2c(=O)[nH]c3cc(Cl)ccc32)CC1 [DOMPERIDONE],Not Active
8,CC1=C(CC(=O)O)c2cc(F)ccc2/C1=C\c1ccc(S(C)(=O)=O)cc1 [EXISULIND],Not Active
